Test results published in patent publication US20050171195A1, “P2X7 antagonists for treating neuropathic pain” (priority 2003, published 2005).

Tests used:
P2X7 receptor = target: T1, P2X7 receptor (Homo sapiens, UniProt Q99572); assay: P2X7 mediated pore formation (YO-PRO dye uptake, FLIPR); format: cell-based; details: THP-1 cells
T1 construct: endogenous in cells; host or cells: THP-1 cells
T1 sequence (Q99572 1-595): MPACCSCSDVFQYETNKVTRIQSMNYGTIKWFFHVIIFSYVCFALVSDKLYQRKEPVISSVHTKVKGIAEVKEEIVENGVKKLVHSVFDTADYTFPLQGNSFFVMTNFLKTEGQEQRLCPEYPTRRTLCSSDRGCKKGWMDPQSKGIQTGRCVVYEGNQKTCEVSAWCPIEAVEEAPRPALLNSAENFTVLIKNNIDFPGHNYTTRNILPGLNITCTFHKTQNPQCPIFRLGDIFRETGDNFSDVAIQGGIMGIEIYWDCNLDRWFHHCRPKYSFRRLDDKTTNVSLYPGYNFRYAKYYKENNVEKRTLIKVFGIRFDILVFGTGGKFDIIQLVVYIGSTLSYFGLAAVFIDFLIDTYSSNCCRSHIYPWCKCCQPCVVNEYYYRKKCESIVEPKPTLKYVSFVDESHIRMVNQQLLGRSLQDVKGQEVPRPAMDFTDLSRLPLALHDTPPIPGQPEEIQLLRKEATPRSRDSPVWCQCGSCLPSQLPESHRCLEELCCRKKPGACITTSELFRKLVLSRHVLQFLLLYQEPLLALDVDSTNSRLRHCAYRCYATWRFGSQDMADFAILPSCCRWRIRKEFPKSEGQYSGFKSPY
Method: P2X7 Mediated Pore Formation. Activation of the P2X7 receptor induces nonspecific pore formation and eventually cell lysis (Verhoef et al., The Journal of Immunology, Vol. 170, pages 5728-5738, 2003). Accordingly, the inhibitory activity of the antagonists of the present invention was determined by their capacity to inhibit the agonist-induced pore formation using the fluorescent dye YO-PRO (MW=629) and Fluorescence Imaging Plate Reader (FLIPR, Molecular Devices, Sunnydale, Calif.) in THP-1 cells. […] The YO-PRO iodide dye (1 mM in DMSO) was diluted to a final concentration of 2 μM in PBS (w/o Mg^2+ or Ca^2+) and then placed on the cells immediately prior to the agonist addition. Since the THP-1 cells are a non-adherent cell line, the cells were washed in PBS and loaded with the dye in a conical tube prior to spinning the cells onto poly-lysine-coated black-walled 96-well plates, which were utilized to reduce light scattering. […] The intensity of the fluorescence was captured by the CCD camera every 15 seconds for the first 10 minutes of agonist exposure followed by every 20 seconds for an additional 50 minutes with the data being digitally transferred to an interfaced PC. The exposure setting of the camera was 0.25 sec with an f-stop setting of 2. […]

Row | melting point [°C] | EC70 value for agonist activation (P2X7 receptor) [µM] | Molecule
1 | 198 to 199 | – | COc1cc(OC)cc(C(=O)NC(NC(=NC#N)Nc2cccnc2OC)C(C)(Cl)Cl)c1 (stereo not shown) [Example 50, N-[2,2-dichloro-1-({(cyanoimino)[(2-methoxy-3-pyridinyl)amino]methyl}amino)propyl]-3,5-dimethoxybenzamide]
2 | 162 to 163 | – | COc1ccc(NC(=NC#N)NC(NC(=O)c2ccc(Cl)cc2)C(C)(Cl)Cl)c(OC)n1 (stereo not shown) [Example 51, 4-chloro-N-[2,2-dichloro-1-({(cyanoimino)[(2,6-dimethoxy-3-pyridinyl)amino]methyl}amino)propyl]benzamide]
3 | 188 to 190 | – | COc1ccc(CC(=O)NC(NC(=NC#N)Nc2cccnc2OC)C(C)(Cl)Cl)cc1OC (stereo not shown) [Example 54, N-[2,2-dichloro-1-({(cyanoimino)[(2-methoxy-3-pyridinyl)amino]methyl}amino)propyl]-2-(3,4-dimethoxyphenyl)acetamide]
4 | – | 50 | benzoylbenzoic ATP [BzATP]
